Patent US20070298994A1, “Use of 3-Mercapto-3-Methyl-Hexan-1-Ol for Use as Malodour Standard” (SYMRISE GMBH & CO. KG, priority 2004, published 2007)

Experiment: Raw material test against sweat odour (masking of malodour standard, assessor panel)
Conditions: not given

Structure (SMILES)	Increase in intensity	Malodour reduction value
CC1CC(C)(c2ccccc2)OC(C)O1 (stereo not drawn) [reference compound]	−0.7	1.1

Same assay, conditions: Table 1; 1 μl fragrance + 5 μl 3-mercapto-3-methyl-hexan-1-ol (0.1% in DPG) in 7 l air, 15 h at approx. 20° C.; scale 1 to 9, malodour standard mixture = 6; mean of at least 8 assessors

Structure (SMILES)	Increase In intensity	Odour reduction value
C/C=C(\C)C(=O)OC/C=C(\C)CCC=C(C)C [TIGLIC ACID GERANYL ESTER]	0.8	4.5
CCCC1CCOC(C)S1 (stereo not drawn) [(Z)-2-METHYL-4-PROPYL-1,3-OXATHIANE]	0.0	3.1
C/C=C/C(=O)OC(C)CC(C)C (stereo not drawn) [CROTONIC ACID-4-METHYL-2-[…]]	−0.5	3.5
COC(=O)c1ccc(O)c(C)c1O [2,4-DIHYDROXY-3-METHYLBENZOIC ACID METHYL ESTER]	0.0	3.0
CC/C=C\CCOCCC#N [(Z)-3-(3-HEXENYLOXY)-PROPANENITRILE]	1.5	5.0
C=CCCCCCCCCC=O [10-UNDECENAL]	1.6	3.3
CC(=O)C1(C)CC2=C(CCCC2(C)C)CC1C (stereo not drawn)	0.2	3.4
CCc1ccc(CC(C)(C)C=O)cc1	−1.9	3.7
CCCC(C)C(=O)OCC (stereo not drawn) [2-METHYL-PENTANOIC ACID ETHYL ESTER]	0.2	4.4
CC1=CCC=C(C)C(O)CCC=C(C)CC1 (stereo not drawn)	1.5	4.5
CC(C)[C@H]1CC[C@H](O)CC1 [TRANS-4-ISOPROPYL CYCLOHEXANOL]	1.0	4.1
CC(=O)c1cc2ccccc2o1 [2-ACETYLBENZOFURAN]	1.2	3.3
CCOC(=O)OC1C(C)CCC(C)C1C (stereo not drawn) [CARBONIC ACID-ETHYL-2.3.6-TRIMETHYL CYCLOHEXYL ESTER]	1.0	4.6
CCCCC1COCC(C)C1OC(C)=O (stereo not drawn) [3-BUTYL-TETRAHYDRO-5-METHYL-PYRAN-4-OL ACETATE]	1.0	3.0
CC1=CCC(C(C)CC=O)CC1 (stereo not drawn)	0.9	3.9
CC(C)=CCC(C)(C)C(=O)C(C)C	1.0	3.3

Structure (SMILES)	Increase In intensity	Odour reduction value
CC1=CC(C)C(C(=O)C(C)(C)C)CC1 (stereo not drawn)	1.4	3.5
C=CCOC(=O)CCCCCC [ALLYL HEPTYLATE]	−0.5	3.0
CC=CC(=O)C1C(C)=CCCC1(C)C (stereo in doubt) [ALPHA-DAMASCONE]	−2.0	4.1
CC(=O)C(C)=C(C)C(C)C(C)(C)C (stereo not drawn)	1.6	3.2
CCCCCCCCCC=O [DECANAL]	0.2	3.0
COC(=O)C1CC2(C)C=CC1(C(C)C)CC2 (stereo not drawn) [1-ISOPROPYL-4-METHYL-BICYCLO[2.2.2]OCT-5-ENE-2-CARBOXYLIC ACID METHYL ESTER]	−0.8	4.2
CC(=O)CC(C)(C)c1ccccc1 [4-METHYL-4-PHENYL-2-PENTANONE]	1.4	4.2
CCCCCCO [1-HEXANOL]	1.6	3.6
C=CCOC(=O)CCCCC [ALLYL CAPRONATE]	1.0	3.0
CCCCCCCCCC/C=C\C#N [(Z)-2-TRIDECENE NITRILE]	1.6	3.8
CC(=O)OC(C)(C)C1CC=C(C)CC1 (stereo not drawn) [ACETIC ACID-ALPHA-TERPINYL ESTER]	−0.3	4.0
CCC/C=C/C=O [(E)-2-HEXENAL]	−0.2	3.1
CC(=O)c1cc2c(cc1C)C(C)(C)C(C)CC2(C)C (stereo not drawn) [6-ACETYL-1,1,2,4,4,7-[…]]	0.0	3.1
CCCCCCOC(=O)c1ccccc1O [SALICYLIC ACID HEXYL ESTER]	1.7	3.7
O=Cc1ccc2c(c1)OCO2 [3,4-METHYLENDIOXYBENZALDEHYDE]	−1.2	3.7
CC(C)CCOC(=O)c1ccccc1O [SALICYLIC ACID 3-METHYLBUTYL ESTER]	1.0	3.3
